How the values were obtained:
EcPsuK = target: T1, EcPsuK (Escherichia coli, UniProt Z9FTQ0OEG4); assay: X-ray crystallography, […] Å; assay type: binding; conditions: co-crystallised with ADP and Ψ, soaked with 1 mM Ψ and 4 mM ADP, MgCl2, pH 7.0, NaCl-purified protein; ADP not seen; nucleoside site; turnover also measured with ATP
T1 construct: N-terminal His6-SUMO removed with Ulp1; host E. coli BL21(DE3)
T1 sequence (Z9FTQ0OEG4 1-313): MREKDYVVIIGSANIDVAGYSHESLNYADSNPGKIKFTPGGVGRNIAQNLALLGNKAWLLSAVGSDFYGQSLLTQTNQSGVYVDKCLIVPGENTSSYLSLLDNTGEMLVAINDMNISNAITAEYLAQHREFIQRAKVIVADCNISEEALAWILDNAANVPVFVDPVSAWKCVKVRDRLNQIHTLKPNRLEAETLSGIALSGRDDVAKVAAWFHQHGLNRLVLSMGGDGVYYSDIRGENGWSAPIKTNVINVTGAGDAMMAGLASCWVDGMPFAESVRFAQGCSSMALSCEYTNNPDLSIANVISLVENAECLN

[1] = target: the molecule itself; assay: SEC; HiLoad 16/60 Superdex 200-pg, 10 mM Tris-HCl pH 8.0, 100 mM NaCl or 100 mM KCl; molecular weight of the purified protein against the calculated monomer

Molecule: O=c1[nH]cc([C@@H]2O[C@H](CO)[C@@H](O)[C@H]2O)c(=O)[nH]1 [pseudouridine]
- X-ray crystallography, 2.30 Å (EcPsuK): we determined the crystal structure of EcPsuK complexed with pseudouridine through co-crystallization

B1: Escherichia coli pseudouridine kinase PsuK (enzyme, E. coli BL21 (DE3), UniProt P30235 1-313, looked up)
chain: MREKDYVVIIGSANIDVAGYSHESLNYADSNPGKIKFTPGGVGRNIAQNLALLGNKAWLLSAVGSDFYGQSLLTQTNQSGVYVDKCLIVPGENTSSYLSLLDNTGEMLVAINDMNISNAITAEYLAQHGEFIQRAKVIVADCNISEEALAWILDNAANVPVFVDPVSAWKCVKVRDRLNQIHTLKPNRLEAETLSGIALSGREDVAKVAAWFHQHGLNRLVLSMGGDGVYYSDISGESGWSAPIKTNVINVTGAGDAMMAGLASCWVDGMPFAESVRFAQGCSSMALSCEYTNNPDLSIANVISLVENAECLN
notes: E. coli pseudouridine kinase PsuK (YeiC), amplified from the E. coli BL21 (DE3) genome, Uniprot ID A0A140N873, aa 1-313 (313 residues, calculated 33.6 kDa); modelled from Arg2 to Asn308 in the apo structure; Cloned by BamHI and XhoI into a modified pET-28a with an Ulp1 cleavage site; also called EcPsuK; YeiC; source: E. coli BL21 (DE3), purified (Ni-NTA, Ulp1 cleavage, second Ni-NTA, Superdex …)
- stoichiometry N [1]: 2

— PMC9247573 (Frontiers in Microbiology, 2022)
